Measured values: ChEMBL document CHEMBL1201862, “PubChem BioAssay data set” (2004)
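Dose response: 5 concentrations. Exposure: 48 h. Format: 96-well plates. Endpoint: linear interpolation; highest concentration if not reached. Here, GI50 denotes the concentration required for 50% inhibition of growth.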 Calls of active or inactive are those of the source. Cut-off read from the data, not from the text of the source: active = GI50 up to about 1.1 µM and inactive = higher.

Columns and labels:
Test in all cases: DTP human tumour cell line panel, 48 h
DMS-114 = test system: DMS-114
LXFL 529 = test system: LXFL 529
DLD-1 = test system: DLD-1
HOP-18 = test system: HOP-18
SNB-78 = test system: SNB-78
XF498 = test system: XF498
MDA-N = test system: MDA-N
Hs-578T = test system: Hs-578T

Compound	GI50 (DMS-114)	GI50 (LXFL 529)	GI50 (DLD-1)	GI50 (HOP-18)	GI50 (SNB-78)	GI50 (XF498)	GI50 (MDA-N)	GI50 (Hs-578T)
CC(=O)c1sc(Nc2nnc(-c3ccc(-c4nnc(Nc5nc(C)c(C(C)=O)s5)o4)cc3)o2)nc1C	> 100 µM (inactive)	> 100 µM (inactive)	> 100 µM (inactive)	> 100 µM (inactive)	> 100 µM (inactive)	–	–	–
O=c1ccc(=O)c2c(=O)c3ccccc3c(=O)c1=2	29 µM (inactive)	> 100 µM (inactive)	38.2 µM (inactive)	–	60.5 µM (inactive)	> 100 µM (inactive)	–	–
CN(C)C(=O)N(CCCl)N=O	> 100 µM (inactive)	–	> 100 µM (inactive)	> 100 µM (inactive)	> 100 µM (inactive)	> 81.1 µM (inactive)	–	–
CCCCc1nccc2c(C)c3[nH]c4ccccc4c3cc12	1.59 µM (inactive)	–	2.81 µM (inactive)	0.486 µM (active)	5.64 µM (inactive)	–	–	–
COc1cc(/C=C2\C[C@H]3[C@@H]4CC=C5C[C@@H](OC(C)=O)CC[C@]5(C)[C@H]4CC[C@]3(C)\C2=N\O)cc(OC)c1OC	–	–	–	–	–	–	4.62 µM (inactive)	4.37 µM (inactive)
COC(=O)c1cc(/C=C/C(=O)Cc2ccccc2)cn1S(=O)(=O)c1ccccc1	–	–	–	–	–	–	> 100 µM (inactive)	> 100 µM (inactive)
Nc1ncn([C@H]2C[C@H](O)[C@@H](CO)O2)c(=O)n1 [DECITABINE]	371 µM (inactive)	–	3.09 µM (inactive)	> 99.1 µM (inactive)	373 µM (inactive)	25.5 µM (inactive)	1.46 µM (inactive)	3.32 µM (inactive)
Cc1ccc([S+]([O-])c2sccc2C=O)cc1 (centres undefined)	–	–	–	–	–	–	27.6 µM (inactive)	24.4 µM (inactive)
C[n+]1cn(-c2ccc([N+](=O)[O-])cn2)c2ccccc21	–	–	–	–	–	–	–	> 100 µM (inactive)
CCCCCOc1ccc(NC2=C(Cl)C(=O)c3c(O)ccc(O)c3C2=O)cc1	–	–	–	–	–	–	3.03 µM (inactive)	1.91 µM (inactive)
CC(C)OP(=O)(OC(C)C)/C(=N/Nc1ccc([N+](=O)[O-])cc1)NN	61.1 µM (inactive)	41.5 µM (inactive)	> 100 µM (inactive)	–	> 100 µM (inactive)	68.9 µM (inactive)	–	–
C=C(C[C@@H](O)[C@H](C)NC(=O)OCc1ccccc1)C(=O)OC(C)(C)C	–	–	–	–	–	–	29.7 µM (inactive)	> 100 µM (inactive)
O=C1OC(c2ccccc2)=N/C1=C/NC(Cc1c[nH]c2ccccc12)C(=O)O (centres undefined)	> 100 µM (inactive)	> 100 µM (inactive)	> 100 µM (inactive)	–	> 100 µM (inactive)	> 100 µM (inactive)	–	–
[O-]/N=[N+](/[O-])C1CCCCC1=[N+]1CCOCC1 (centres undefined)	> 100 µM (inactive)	> 100 µM (inactive)	–	–	> 100 µM (inactive)	0.157 µM (active)	–	–
COC(=O)c1cc(CC(C)C)c2c(c1)[nH]c1ccccc12	50.4 µM (inactive)	> 100 µM (inactive)	> 100 µM (inactive)	–	–	> 100 µM (inactive)	–	–
Cc1ccc(NCC2(/N=C/c3ccccc3)OC(CO)C(O)C2O)cc1 (centres undefined)	40 µM (inactive)	77.6 µM (inactive)	72.4 µM (inactive)	–	–	> 100 µM (inactive)	–	–
Nc1nc(Cl)c(N)c(NC23CC4CC(CC(C4)C2)C3)n1	–	–	–	–	–	–	1.58 µM (inactive)	4.4 µM (inactive)
O=C(/C=C/c1ccc(-c2ccccc2)cc1)NCc1ccc(C(=O)NCCc2c[nH]c3ccccc23)cc1	–	–	–	–	–	–	49.2 µM (inactive)	38.5 µM (inactive)
NC1=NCC(CN2CCCCC2)O1 (centres undefined)	–	–	–	–	–	–	> 100 µM (inactive)	> 100 µM (inactive)
NCCCCNCCCNC(=O)c1nc(-c2csc(CCN)n2)sc1Cl	> 100 µM (inactive)	17.9 µM (inactive)	> 100 µM (inactive)	–	> 100 µM (inactive)	> 100 µM (inactive)	–	–
CC1=C(O)C(=O)c2cn(C)cc2C1=O	> 100 µM (inactive)	> 100 µM (inactive)	> 100 µM (inactive)	> 100 µM (inactive)	> 100 µM (inactive)	> 100 µM (inactive)	–	–
NC1c2c(Br)sc(N3CCCC3)c2C(=O)C1O (centres undefined)	–	–	–	–	–	–	> 50 µM (inactive)	> 50 µM (inactive)
Cc1ccc(OCC2OC(n3cnc4c(N(C)C)nc(Br)nc43)CC2Oc2ccc(C)cc2)cc1 (centres undefined)	–	–	–	–	–	–	> 100 µM (inactive)	> 100 µM (inactive)
CC(=O)C1(Cc2cccc3ccccc23)S(=O)(=O)OCCOS1(=O)=O	–	–	–	–	–	–	11.8 µM (inactive)	–
CO/C(=C/C(=O)C(Cl)(Cl)Cl)CC/C(=C\C(=O)C(Cl)(Cl)Cl)OC	–	–	–	–	–	–	22.8 µM (inactive)	35.9 µM (inactive)
O=C1C(Cl)=C(Cl)C(=O)N1C1C2CC3CC(C2)CC1C3 (centres undefined)	> 100 µM (inactive)	47.5 µM (inactive)	> 60.1 µM (inactive)	> 100 µM (inactive)	> 100 µM (inactive)	> 100 µM (inactive)	–	–
